Literature values as cited in US5807979A, “Synthetic, three-dimensionally stabilized polypeptide mimics of HIV” (The Scripps Research Institute, priority 1995, dated 1998).

Key:
[1] = tested on: malaria; settings: tested in humans; cited from earlier work
[2] = fraction of the activity of parent EGF; cited from earlier work

| Substance | effectiveness of vaccine in humans [1] | activity relative to that of the parent molecule [2] |
| --- | --- | --- |
| (Asn-Ala-Asn-Pro)3 | only partially effective |  |
| active fragment of epidermal growth factor (EGF), comprising amino acids 20-31: active fragment of epidermal growth factor (EGF), comprising amino acids 20-31 (CMYIEALDKYAC; Epidermal growth factor; UniProt P01133 990-1001, looked up, fragment) |  | about 10^-4 |
